Data reported in US11672251B2, “Herbicidally active pyridyl-/pyrimidyl-pyrimidine derivatives” (Syngenta Participations AG, priority 2017, dated 2023).

tested on: Lolium perenne (LOLPE); assay: B1 pre-emergence herbicidal activity; type: in vivo; details: Test 1b, rate 1000 g/ha, evaluated after 13 days, scale 5=total damage to plant, 0=no damage to plant
Procedure: (§1) Seeds of a variety of test species were sown in standard soil in pots: Triticum aestivium (TRZAW), Avena fatua (AVEFA), Alopecurus myosuroides (ALOMY), Echinochloa crus-galli (ECHCG), Lolium perenne (LOLPE), Zea Mays (ZEAMX), Abutilon theophrasti (ABUTH), Amaranthus retroflexus (AMARE) and Setaria faberi (SETFA). After cultivation for one day (pre-emergence) under controlled conditions in a glasshouse (at 24/16° C., day/night; 14 hours light; 65% humidity), the plants were sprayed with an aqueous spray solution derived from the formulation of the technical active ingredient in acetone/water (50:50) solution containing 0.5% Tween 20 (polyoxyethelyene sorbitan monolaurate, CAS RN 9005-64-5). The test plants were then grown in a glasshouse under controlled conditions (at 24/16° C., day/night; 14 hours light; 65% humidity) and watered twice daily. After 13 days, the test was evaluated (5=total damage to plant; 0=no damage to plant).

| Structure (SMILES) | Control after pre-emergence application, damage score: LOLPE |
| --- | --- |
| CN(C)c1cnc(-c2cncc(F)c2)nc1C(F)(F)F [Compound D8] | 1 |
| Nc1cnc(-c2cncnc2)nc1C(F)(F)F [Compound D9] | 1 |
| N#Cc1cncc(-c2ncc(N)c(C(F)(F)F)n2)c1 [Compound D10, 5-[5-amino-4-(trifluoromethyl)pyrimidin-2-yl]pyridine-3-carbonitrile] | 0 |
| CCNc1cnc(-c2cncc(N)c2)nc1C(F)(F)F [Compound D11] | 0 |
| CCN(CC)c1cnc(-c2cncc(F)c2)nc1C(F)(F)F [Compound D12] | 0 |
| Fc1cncc(-c2ncc(NCc3nccs3)c(C(F)(F)F)n2)c1 [Compound D15] | 0 |

tested on: Avena fatua (AVEFA); assay: B1 pre-emergence herbicidal activity; type: in vivo; details: Test 1b, rate 1000 g/ha, evaluated after 13 days, scale 5=total damage to plant, 0=no damage to plant
Procedure: as §1

| Structure (SMILES) | Control after pre-emergence application, damage score: AVEFA |
| --- | --- |
| CN(C)c1cnc(-c2cncc(F)c2)nc1C(F)(F)F [Compound D8] | 1 |
| Nc1cnc(-c2cncnc2)nc1C(F)(F)F [Compound D9] | 2 |
| N#Cc1cncc(-c2ncc(N)c(C(F)(F)F)n2)c1 [Compound D10, 5-[5-amino-4-(trifluoromethyl)pyrimidin-2-yl]pyridine-3-carbonitrile] | 0 |
| CCNc1cnc(-c2cncc(N)c2)nc1C(F)(F)F [Compound D11] | 0 |
| CCN(CC)c1cnc(-c2cncc(F)c2)nc1C(F)(F)F [Compound D12] | 0 |
| Fc1cncc(-c2ncc(NCc3nccs3)c(C(F)(F)F)n2)c1 [Compound D15] | 1 |

tested on: Triticum aestivium (TRZAW); assay: B1 pre-emergence herbicidal activity; type: in vivo; details: Test 1b, rate 1000 g/ha, evaluated after 13 days, scale 5=total damage to plant, 0=no damage to plant
Procedure: as §1

| Structure (SMILES) | Control after pre-emergence application, damage score: TRAZW |
| --- | --- |
| CN(C)c1cnc(-c2cncc(F)c2)nc1C(F)(F)F [Compound D8] | 0 |
| Nc1cnc(-c2cncnc2)nc1C(F)(F)F [Compound D9] | 0 |
| N#Cc1cncc(-c2ncc(N)c(C(F)(F)F)n2)c1 [Compound D10, 5-[5-amino-4-(trifluoromethyl)pyrimidin-2-yl]pyridine-3-carbonitrile] | 0 |
| CCNc1cnc(-c2cncc(N)c2)nc1C(F)(F)F [Compound D11] | 0 |
| CCN(CC)c1cnc(-c2cncc(F)c2)nc1C(F)(F)F [Compound D12] | 0 |
| Fc1cncc(-c2ncc(NCc3nccs3)c(C(F)(F)F)n2)c1 [Compound D15] | 0 |

tested on: Setaria faberi (SETFA); assay: B1 pre-emergence herbicidal activity; type: in vivo; details: Test 1b, rate 1000 g/ha, evaluated after 13 days, scale 5=total damage to plant, 0=no damage to plant
Procedure: as §1

| Structure (SMILES) | Control after pre-emergence application, damage score: SETFA |
| --- | --- |
| CN(C)c1cnc(-c2cncc(F)c2)nc1C(F)(F)F [Compound D8] | 4 |
| Nc1cnc(-c2cncnc2)nc1C(F)(F)F [Compound D9] | 4 |
| N#Cc1cncc(-c2ncc(N)c(C(F)(F)F)n2)c1 [Compound D10, 5-[5-amino-4-(trifluoromethyl)pyrimidin-2-yl]pyridine-3-carbonitrile] | 3 |
| CCNc1cnc(-c2cncc(N)c2)nc1C(F)(F)F [Compound D11] | 5 |
| CCN(CC)c1cnc(-c2cncc(F)c2)nc1C(F)(F)F [Compound D12] | 5 |
| Fc1cncc(-c2ncc(NCc3nccs3)c(C(F)(F)F)n2)c1 [Compound D15] | 5 |

tested on: Alopecurus myosuroides (ALOMY); assay: B1 pre-emergence herbicidal activity; type: in vivo; details: Test 1b, rate 1000 g/ha, evaluated after 13 days, scale 5=total damage to plant, 0=no damage to plant
Procedure: as §1

| Structure (SMILES) | Control after pre-emergence application, damage score: ALOMY |
| --- | --- |
| CN(C)c1cnc(-c2cncc(F)c2)nc1C(F)(F)F [Compound D8] | 0 |
| Nc1cnc(-c2cncnc2)nc1C(F)(F)F [Compound D9] | 0 |
| N#Cc1cncc(-c2ncc(N)c(C(F)(F)F)n2)c1 [Compound D10, 5-[5-amino-4-(trifluoromethyl)pyrimidin-2-yl]pyridine-3-carbonitrile] | 0 |
| CCNc1cnc(-c2cncc(N)c2)nc1C(F)(F)F [Compound D11] | 0 |
| CCN(CC)c1cnc(-c2cncc(F)c2)nc1C(F)(F)F [Compound D12] | 0 |
| Fc1cncc(-c2ncc(NCc3nccs3)c(C(F)(F)F)n2)c1 [Compound D15] | 0 |

tested on: Echinochloa crus-galli (ECHCG); assay: B1 pre-emergence herbicidal activity; type: in vivo; details: Test 1b, rate 1000 g/ha, evaluated after 13 days, scale 5=total damage to plant, 0=no damage to plant
Procedure: as §1

| Structure (SMILES) | Control after pre-emergence application, damage score: ECHCG |
| --- | --- |
| CN(C)c1cnc(-c2cncc(F)c2)nc1C(F)(F)F [Compound D8] | 2 |
| Nc1cnc(-c2cncnc2)nc1C(F)(F)F [Compound D9] | 3 |
| N#Cc1cncc(-c2ncc(N)c(C(F)(F)F)n2)c1 [Compound D10, 5-[5-amino-4-(trifluoromethyl)pyrimidin-2-yl]pyridine-3-carbonitrile] | 0 |
| CCNc1cnc(-c2cncc(N)c2)nc1C(F)(F)F [Compound D11] | 3 |
| CCN(CC)c1cnc(-c2cncc(F)c2)nc1C(F)(F)F [Compound D12] | 1 |
| Fc1cncc(-c2ncc(NCc3nccs3)c(C(F)(F)F)n2)c1 [Compound D15] | 4 |

tested on: Lolium perenne (LOLPE); assay: B2 post-emergence herbicidal activity; type: in vivo; details: Test B2b; post-emergence (sprayed after 8 days cultivation); rate 1000 g/ha; evaluated after 13 days; scale 5=total damage to plant, 0=no damage to plant
Procedure: (§2) Seeds of a variety of test species were sown in standard soil in pots: Triticum aestivium (TRZAW), Avena fatua (AVEFA), Alopecurus myosuroides (ALOMY), Echinochloa crus-galli (ECHCG), Lolium perenne (LOLPE), Zea Mays (ZEAMX), Abutilon theophrasti (ABUTH), Amaranthus retroflexus (AMARE) and Setaria faberi (SETFA). After 8 days cultivation (post-emergence) under controlled conditions in a glasshouse (at 24/16° C., day/night; 14 hours light; 65% humidity), the plants were sprayed with an aqueous spray solution derived from the formulation of the technical active ingredient in acetone/water (50:50) solution containing 0.5% Tween 20 (polyoxyethelyene sorbitan monolaurate, CAS RN 9005-64-5). The test plants were then grown in a glasshouse under controlled conditions (at 24/16° C., day/night; 14 hours light; 65% humidity) and watered twice daily. After 13 days, the test was evaluated (5=total damage to plant; 0=no damage to plant).

| Structure (SMILES) | Control after post-emergence application, damage score: LOLPE |
| --- | --- |
| CN(C)c1cnc(-c2cncc(F)c2)nc1C(F)(F)F [Compound D8] | 0 |
| Nc1cnc(-c2cncnc2)nc1C(F)(F)F [Compound D9] | 2 |
| N#Cc1cncc(-c2ncc(N)c(C(F)(F)F)n2)c1 [Compound D10, 5-[5-amino-4-(trifluoromethyl)pyrimidin-2-yl]pyridine-3-carbonitrile] | 1 |
| CCNc1cnc(-c2cncc(N)c2)nc1C(F)(F)F [Compound D11] | 1 |
| CCN(CC)c1cnc(-c2cncc(F)c2)nc1C(F)(F)F [Compound D12] | 2 |
| Fc1cncc(-c2ncc(NCc3nccs3)c(C(F)(F)F)n2)c1 [Compound D15] | 2 |

tested on: Avena fatua (AVEFA); assay: B2 post-emergence herbicidal activity; type: in vivo; details: Test B2b; post-emergence (sprayed after 8 days cultivation); rate 1000 g/ha; evaluated after 13 days; scale 5=total damage to plant, 0=no damage to plant
Procedure: as §2

| Structure (SMILES) | Control after post-emergence application, damage score: AVEFA |
| --- | --- |
| CN(C)c1cnc(-c2cncc(F)c2)nc1C(F)(F)F [Compound D8] | 1 |
| Nc1cnc(-c2cncnc2)nc1C(F)(F)F [Compound D9] | 3 |
| N#Cc1cncc(-c2ncc(N)c(C(F)(F)F)n2)c1 [Compound D10, 5-[5-amino-4-(trifluoromethyl)pyrimidin-2-yl]pyridine-3-carbonitrile] | 1 |
| CCNc1cnc(-c2cncc(N)c2)nc1C(F)(F)F [Compound D11] | 2 |
| CCN(CC)c1cnc(-c2cncc(F)c2)nc1C(F)(F)F [Compound D12] | 3 |

tested on: Triticum aestivium (TRZAW); assay: B2 post-emergence herbicidal activity; type: in vivo; details: Test B2b; post-emergence (sprayed after 8 days cultivation); rate 1000 g/ha; evaluated after 13 days; scale 5=total damage to plant, 0=no damage to plant
Procedure: as §2

| Structure (SMILES) | Control after post-emergence application, damage score: TRAZW |
| --- | --- |
| CN(C)c1cnc(-c2cncc(F)c2)nc1C(F)(F)F [Compound D8] | 0 |
| Nc1cnc(-c2cncnc2)nc1C(F)(F)F [Compound D9] | 0 |
| N#Cc1cncc(-c2ncc(N)c(C(F)(F)F)n2)c1 [Compound D10, 5-[5-amino-4-(trifluoromethyl)pyrimidin-2-yl]pyridine-3-carbonitrile] | 1 |
| CCNc1cnc(-c2cncc(N)c2)nc1C(F)(F)F [Compound D11] | 1 |
| CCN(CC)c1cnc(-c2cncc(F)c2)nc1C(F)(F)F [Compound D12] | 1 |
| Fc1cncc(-c2ncc(NCc3nccs3)c(C(F)(F)F)n2)c1 [Compound D15] | 0 |

tested on: Setaria faberi (SETFA); assay: B2 post-emergence herbicidal activity; type: in vivo; details: Test B2b; post-emergence (sprayed after 8 days cultivation); rate 1000 g/ha; evaluated after 13 days; scale 5=total damage to plant, 0=no damage to plant
Procedure: as §2

| Structure (SMILES) | Control after post-emergence application, damage score: SETFA |
| --- | --- |
| CN(C)c1cnc(-c2cncc(F)c2)nc1C(F)(F)F [Compound D8] | 5 |
| Nc1cnc(-c2cncnc2)nc1C(F)(F)F [Compound D9] | 5 |
| N#Cc1cncc(-c2ncc(N)c(C(F)(F)F)n2)c1 [Compound D10, 5-[5-amino-4-(trifluoromethyl)pyrimidin-2-yl]pyridine-3-carbonitrile] | 4 |
| CCNc1cnc(-c2cncc(N)c2)nc1C(F)(F)F [Compound D11] | 5 |
| CCN(CC)c1cnc(-c2cncc(F)c2)nc1C(F)(F)F [Compound D12] | 5 |
| Fc1cncc(-c2ncc(NCc3nccs3)c(C(F)(F)F)n2)c1 [Compound D15] | 5 |

tested on: Alopecurus myosuroides (ALOMY); assay: B2 post-emergence herbicidal activity; type: in vivo; details: Test B2b; post-emergence (sprayed after 8 days cultivation); rate 1000 g/ha; evaluated after 13 days; scale 5=total damage to plant, 0=no damage to plant
Procedure: as §2

| Structure (SMILES) | Control after post-emergence application, damage score: ALOMY |
| --- | --- |
| CN(C)c1cnc(-c2cncc(F)c2)nc1C(F)(F)F [Compound D8] | 0 |
| Nc1cnc(-c2cncnc2)nc1C(F)(F)F [Compound D9] | 0 |
| N#Cc1cncc(-c2ncc(N)c(C(F)(F)F)n2)c1 [Compound D10, 5-[5-amino-4-(trifluoromethyl)pyrimidin-2-yl]pyridine-3-carbonitrile] | 0 |
| CCNc1cnc(-c2cncc(N)c2)nc1C(F)(F)F [Compound D11] | 1 |
| CCN(CC)c1cnc(-c2cncc(F)c2)nc1C(F)(F)F [Compound D12] | 0 |
| Fc1cncc(-c2ncc(NCc3nccs3)c(C(F)(F)F)n2)c1 [Compound D15] | 1 |

tested on: Echinochloa crus-galli (ECHCG); assay: B2 post-emergence herbicidal activity; type: in vivo; details: Test B2b; post-emergence (sprayed after 8 days cultivation); rate 1000 g/ha; evaluated after 13 days; scale 5=total damage to plant, 0=no damage to plant
Procedure: as §2

| Structure (SMILES) | Control after post-emergence application, damage score: ECHCG |
| --- | --- |
| CN(C)c1cnc(-c2cncc(F)c2)nc1C(F)(F)F [Compound D8] | 4 |
| Nc1cnc(-c2cncnc2)nc1C(F)(F)F [Compound D9] | 3 |
| N#Cc1cncc(-c2ncc(N)c(C(F)(F)F)n2)c1 [Compound D10, 5-[5-amino-4-(trifluoromethyl)pyrimidin-2-yl]pyridine-3-carbonitrile] | 3 |
| CCNc1cnc(-c2cncc(N)c2)nc1C(F)(F)F [Compound D11] | 5 |
| CCN(CC)c1cnc(-c2cncc(F)c2)nc1C(F)(F)F [Compound D12] | 5 |
| Fc1cncc(-c2ncc(NCc3nccs3)c(C(F)(F)F)n2)c1 [Compound D15] | 5 |
